Reference: ChEMBL document CHEMBL4665893, “Scalable Synthesis, In Vitro cccDNA Reduction, and In Vivo Antihepatitis B Virus Activity of a Phosphonomethoxydeoxythreosyl Adenine Prodrug” (J Med Chem, 2020)
The source made the active and inactive calls. The rule behind the calls is not given here.

Experiments:
Hepatitis B virus [1] = experiment: Antiviral activity against HBV infected hydrodynamic injection C57BL/6 mouse model assessed as reduction in serum HBV DNA level at 0.6 to 60 mg/kg, po QD for 6 days by qPCR analysis; type: functional, organism-based; conditions: dose mg/kg 0.6-60, time 6.0 day
Hepatitis B virus [2] = experiment: Antiviral activity against ETV-resistant and adenovirus AdH294-7LR harboring wild-type HBV infected in human HepG2 cells assessed as viral replicative intermediate DNA level at 40 nM incubated for 5 days by Southern blot analysis (reference value: 100%); type: functional; conditions: time 5 day
Hepatitis B virus [3] = experiment: Antiviral activity against adenovirus AdH294-WT harboring wild-type HBV genotype D accession #V01460 infected in human HepG2 cells assessed as reduction in viral replicative intermediate DNA level at 3300 nM incubated for 5 days by Southern blot analysis (reference value: 100%); type: functional; design: scale not given: the % may be the effect or the level left; conditions: time 5 day
Hepatitis B virus [4] = experiment: Antiviral activity against adenovirus AdH294-WT harboring wild-type HBV genotype D accession #V01460 infected in human HepG2 cells assessed as reduction in viral replicative intermediate DNA level at 1100 nM incubated for 5 days by Southern blot analysis (reference value: 100%); type: functional; design: scale not given: the % may be the effect or the level left; conditions: time 5 day
Hepatitis B virus [5] = experiment: Antiviral activity against ETV-resistant and adenovirus AdH294-7LR harboring wild-type HBV infected in human HepG2 cells assessed as viral replicative intermediate DNA level at 10000 nM incubated for 5 days by Southern blot analysis (reference value: 100%); type: functional; conditions: time 5 day
[6] = Toxicity in HBV infected hydrodynamic injection C57BL/6 mouse model assessed as effect on body weight at 0.6 to 60 mg/kg, po QD for 6 days; type: organism-based; conditions: in vivo, 144 h, dose 0.6-60 mg/kg, time 6 day
Hepatitis B virus [7] = experiment: Antiviral activity against adenovirus AdH294-WT harboring wild-type HBV genotype D accession #V01460 infected in human HepG2 cells assessed as reduction in viral replicative intermediate DNA level at 10000 nM incubated for 5 days by Southern blot analysis (reference value: 100%); type: functional; design: scale not given: the % may be the effect or the level left; conditions: time 5 day
Hepatitis B virus [8] = experiment: Antiviral activity against ETV-resistant and adenovirus AdH294-7LR harboring wild-type HBV infected in human HepG2 cells assessed as viral replicative intermediate DNA level at 4 nM incubated for 5 days by Southern blot analysis (reference value: 100%); type: functional; conditions: time 5 day
Hepatitis B virus [9] = experiment: Antiviral activity against adenovirus AdH294-WT harboring wild-type HBV genotype D accession #V01460 infected in human HepG2 cells assessed as reduction in viral replicative intermediate DNA level at 370 nM incubated for 5 days by Southern blot analysis (reference value: 100%); type: functional; design: scale not given: the % may be the effect or the level left; conditions: time 5 day
Hepatitis B virus [10] = experiment: Antiviral activity against ETV-resistant and adenovirus AdH294-7LR harboring wild-type HBV infected in human HepG2 cells assessed as viral replicative intermediate DNA level at 3300 nM incubated for 5 days by Southern blot analysis (reference value: 100%); type: functional; conditions: time 5 day
Hepatitis B virus [11] = experiment: Antiviral activity against adenovirus AdH294-WT harboring wild-type HBV genotype D accession #V01460 infected in human HepG2 cells assessed as reduction in viral replicative intermediate DNA level at 40 nM incubated for 5 days by Southern blot analysis (reference value: 100%); type: functional; design: scale not given: the % may be the effect or the level left; conditions: time 5 day
Hepatitis B virus [12] = experiment: Antiviral activity against adenovirus AdH294-WT harboring wild-type HBV genotype D accession #V01460 infected in human HepG2 cells assessed as reduction in viral replicative intermediate DNA level at 4 nM incubated for 5 days by Southern blot analysis (reference value: 100%); type: functional; design: scale not given: the % may be the effect or the level left; conditions: time 5 day
Hepatitis B virus [13] = experiment: Antiviral activity against ETV-resistant and adenovirus AdH294-7LR harboring wild-type HBV infected in human HepG2 cells assessed as viral replicative intermediate DNA level at 120 nM incubated for 5 days by Southern blot analysis (reference value: 100%); type: functional; conditions: time 5 day
Hepatitis B virus [14] = experiment: Antiviral activity against adenovirus AdH294-WT harboring wild-type HBV genotype D accession #V01460 infected in human HepG2 cells assessed as reduction in viral replicative intermediate DNA level at 120 nM incubated for 5 days by Southern blot analysis (reference value: 100%); type: functional; design: scale not given: the % may be the effect or the level left; conditions: time 5 day
Hepatitis B virus [15] = experiment: Antiviral activity against adenovirus AdH294-WT harboring wild-type HBV genotype D accession #V01460 infected in human HepG2 cells assessed as reduction in viral replicative intermediate DNAs at 4 to 1000 nM incubated for 5 days by Southern blot analysis; type: functional, organism-based; conditions: time 5.0 day
Hepatitis B virus [16] = experiment: Antiviral activity against ETV-resistant and adenovirus AdH294-7LR harboring wild-type HBV infected in human HepG2 cells assessed as viral replicative intermediate DNA level at 370 nM incubated for 5 days by Southern blot analysis (reference value: 100%); type: functional; conditions: time 5 day
Hepatitis B virus [17] = experiment: Antiviral activity against ETV-resistant and adenovirus AdH294-7LR harboring wild-type HBV infected in human HepG2 cells assessed as viral replicative intermediate DNA level at 13 nM incubated for 5 days by Southern blot analysis (reference value: 100%); type: functional; conditions: time 5 day
Hepatitis B virus [18] = experiment: Antiviral activity against adenovirus AdH294-WT harboring wild-type HBV genotype D accession #V01460 infected in human HepG2 cells assessed as reduction in viral replicative intermediate DNA level at 13 nM incubated for 5 days by Southern blot analysis (reference value: 100%); type: functional; design: scale not given: the % may be the effect or the level left; conditions: time 5 day
Hepatitis B virus [19] = experiment: Antiviral activity against ETV-resistant and adenovirus AdH294-7LR harboring wild-type HBV infected in human HepG2 cells assessed as viral replicative intermediate DNA level at 1100 nM incubated for 5 days by Southern blot analysis (reference value: 100%); type: functional; conditions: time 5 day
Hepatitis B virus [20] = experiment: Antiviral activity against ETV-resistant and adenovirus AdH294-7LR harboring wild-type HBV infected in human HepG2 cells assessed as reduction in viral replicative intermediate DNAs up to 100 uM incubated for 5 days by Southern blot analysis; type: functional, organism-based; conditions: dose microM <=100, time 5.0 day
[21] = Selectivity index, […] against HBV infected in human HepDE19 cells to CC50 for toxicity in human HepDE19 cells; type: cell-based; conditions: read-out: Ratio CC50/IC50
Hepatitis B virus [22] = experiment: Antiviral activity against HBV infected in human HepDE19 cells assessed as reduction in HBV cccDNA incubated for 9 days by qPCR analysis; type: functional, organism-based; conditions: HepDE19, 216 h
Hepatitis B virus [23] = experiment: Antiviral activity against ETV-resistant and adenovirus AdH294-7LR harboring wild-type HBV infected in human HepG2 cells assessed as reduction in viral replicative intermediate DNAs at 4 to 1000 nM incubated for 5 days by Southern blot analysis; type: functional, organism-based; conditions: time 5.0 day
[24] = Toxicity in human HepDE19 cells assessed as reduction in beta-actin level incubated for 9 days by qPCR analysis; type: cell-based; conditions: time 9 day

Row | SMILES | Activity (Hepatitis B virus [1]) | Activity (Hepatitis B virus [2]) [%] | Activity (Hepatitis B virus [3]) [%] | Activity (Hepatitis B virus [4]) [%] | Activity (Hepatitis B virus [5]) [%] | Activity [6] | Activity (Hepatitis B virus [7]) [%] | Activity (Hepatitis B virus [8]) [%] | Activity (Hepatitis B virus [9]) [%] | Activity (Hepatitis B virus [10]) [%] | Activity (Hepatitis B virus [11]) [%] | Activity (Hepatitis B virus [12]) [%] | Activity (Hepatitis B virus [13]) [%] | Activity (Hepatitis B virus [14]) [%] | Activity (Hepatitis B virus [16]) [%] | Activity (Hepatitis B virus [17]) [%] | Activity (Hepatitis B virus [18]) [%] | Activity (Hepatitis B virus [19]) [%] | also measured
1 | C=C1[C@H](CO)[C@@H](O)C[C@@H]1n1cnc2c(=O)[nH]c(N)nc21.O [ENTECAVIR] | Dose-dependent effect | 98.6 | 4.6 | 7 | 37 | Non-Toxic | 2.9 | 93.9 | 10.5 | 35.5 | 16 | 46.4 | 63.8 | 13.8 | 60.4 | 92.2 | 25.7 | 51.2 | Activity (Hepatitis B virus [15]): Active; Activity (Hepatitis B virus [20]): inactive
2 | CC(C)OC(=O)[C@H](C)N[P@](=O)(CO[C@H](C)Cn1cnc2c(N)ncnc21)Oc1ccccc1 [TENOFOVIR ALAFENAMIDE] | Dose-dependent effect | 21.4 | 0 | 1.3 | 0 | Non-Toxic | 0 | 93.7 | 4.2 | 1.2 | 18.1 | 75.6 | 11.3 | 10.8 | 5 | 38.3 | 40.7 | 2.6 | selectivity ratio [21]: 13; IC50 (Hepatitis B virus [22]): 40 nM; IC90 (Hepatitis B virus [22]; time 9 day): > 100 nM; Activity (Hepatitis B virus [23]): Active; CC50 at 216 h [24]: 500 nM
